Results from publication PMC11356900, “Synthesis, Structural Properties and Biological Activities of Novel Hydrazones of 2-, 3-, 4-Iodobenzoic Acid” (Molecules, 2024).
≈ marks a conversion by molar mass, not a printed value. Like-named read-outs stand apart in the source and are kept apart here.

Legend:
[1] = system: Staphylococcus aureus ATCC 25923; assay: Broth microdilution MIC/MBC; conditions: Staphylococcus aureus, ATCC25923
[2] = system: Candida albicans ATCC 2091; assay: Broth microdilution MIC/MFC; assay type: cell-based; conditions: ATCC2091, read-out: MIC
Source text: (§1) Procedures of in vitro antimicrobial assays are described in Supplementary Materials.
(§2) 2. Microbiology – in vitro antimicrobial activity assays […]
(§3) using the broth microdilution method according to the European Committee on Antimicrobial Susceptibility Testing (EUCAST) and Clinical and Laboratory Standards Institute guidelines against a panel of reference and clinical or saprophytic strains of mi croorganisms, including the Gram-positive bacteria: Staphylococcus aureus ATCC 43300 (Methi-cillin Resistant S. aureus – MRSA), Staphylococcus aureus ATCC 29213 (Methicillin Susceptible S. aureus – MSSA), Staph-ylococcus epidermidis ATCC 12228, Micrococcus luteus ATCC 10240, Bacillus subtilis ATCC 6633 and Bacillus cereus ATCC 10876), Gram-negative bacteria: Bordetella bronchiseptica ATCC 4617, Escherichia coli ATCC 25922, Klebsiella pneumoniae ATCC 13883, Proteus mirabilis ATCC 12453, Salmonella typhimurium ATCC 14028 and Pseudomonas aeruginosa ATCC 9027, and fungi belonging to yeasts: Candida albicans ATCC 10231, Candida albicans ATCC 2091, Candida parapsilosis ATCC 22019, Candida glabrata ATCC 90030 and Candida krusei ATCC 14243. The microorganisms belonging to ATCC originated from American Type Culture Collection, routinely used for the evaluation of antimicrobials. All the used microbial cultures were first subcultured on nutrient agar or Sabouraud agar at 35°C for 18-24 h or 30°C for 24-48 h for bacteria […]
(§4) The surface of Mueller-Hinton agar (for bacteria) and RPMI 1640 with MOPS (for fungi) were inoculated with the suspensions of bacterial or fungal species. Microbial suspensions were prepared in sterile saline with an optical density of McFarland standard scale 0.5. The samples containing the compounds were dissolved in dimethyl sulfoxide (DMSO).
(§5) Furthermore, the bacterial and fungal suspensions put onto the Petri dishes with solid media containing 2 mg/mL of the tested compounds followed were incubated at 37°C for 24h and 30°C for 48h for bacteria and fungi, respectively.
(§6) The inhibition of microbial growth was estimated comparing with a control culture prepared without any tested sam- […]
(§7) antifungal compounds, respectively.
(§8) Subsequently, MIC (Minimal Inhibitory Concentration) of the compounds was examined by the microdilution broth method, using their two-fold dilutions in Mueller-Hinton broth (for bacteria) and RPMI 1640 broth with MOPS (for fungi) prepared in the 96-well polystyrene plates. The final concentrations of the compounds ranged from 1000 to 0.488 µg/mL. Microbial suspensions were prepared in 0.85% NaCl with an optical density of 0.5 McFarland standard. Next each bacterial or fungal suspension was added per each well containing broth and various concentrations of the exam-ined compounds. After incubation, the MIC was assessed spectrophotometrically as the lowest concentration of the […]
(§9) Appropriate DMSO, growth and sterile controls were carried out. The medium with no tested substances was used as a control The MBC (Minimal Bactericidal Concentration) and MFC (Minimal Fungicidal Concentration) are defined as the lowest concentration of the compounds that is required to kill a particular bacterial or fungal species. The MBC/MFC was determined by removing the culture used for the MIC determination from each well and spotted onto the appro-priate agar medium. The plates were incubated under appropriate conditions for bacteria and fungi. The lowest com-pounds concentration with no visible growth observed was assessed as a bactericidal/fungicidal concentration. All the experiments were repeated three times and the representative data are presented.
(§10) 1. European Committee for Antimicrobial Susceptibility Testing (EUCAST) Determination of minimum inhibitory con-centrations (MICs) of antibacterial agents by broth dilution. EUCAST discussion document E. Dis 5.1. Clin. Microbiol.
(§11) 2. Clinical and Laboratory Standards Institute. Reference method for broth dilution antifungal susceptibility testing of […]

[3] = system: Candida parapsilosis ATCC 22019; assay: Broth microdilution MIC/MFC; assay type: cell-based; conditions: Lodderomyces parapsilosis; for MIC: ATCC22019, read-out: MIC
Source text: as §1, §2, §3, §4, §5, §6, §7, §8, §9, §10, §11

[4] = system: Candida krusei ATCC 14243; assay: Broth microdilution MIC/MFC; assay type: cell-based; conditions: Pichia kudriavzevii, ATCC14243, read-out: MIC
Source text: as §1, §2, §3, §4, §5, §6, §7, §8, §9, §10, §11

[5] = system: Candida albicans ATCC 10231; assay: Broth microdilution MIC/MFC; assay type: cell-based; conditions: ATCC10231, read-out: MIC
Source text: as §1, §2, §3, §4, §5, §6, §7, §8, §9, §10, §11

[6] = system: Candida glabrata ATCC 90030; assay: Broth microdilution MIC/MFC; assay type: cell-based; conditions: Nakaseomyces glabratus, ATCC90030, read-out: MIC
Source text: as §1, §2, §3, §4, §5, §6, §7, §8, §9, §10, §11

[7] = system: Salmonella typhimurium ATCC 14028; assay: Broth microdilution MIC/MBC; conditions: Salmonella enterica
Gram-positive bacteria = assay: Broth microdilution, summary over reference Gram-positive bacteria; assay type: cell-based
Source text: as §1, §2, §3, §4, §5, §6, §7, §8, §9, §10, §11

[8] = system: Bacillus cereus ATCC 10876; assay: Broth microdilution MIC/MBC; conditions: Bacillus cereus, ATCC10876
[9] = system: Pseudomonas aeruginosa ATCC 9027; assay: Broth microdilution MIC/MBC; conditions: ATCC9027
[10] = system: Proteus mirabilis ATCC 12453; assay: Broth microdilution MIC/MBC; conditions: ATCC12453
[11] = system: Bordetella bronchiseptica ATCC 4617; assay: Broth microdilution MIC/MBC; conditions: ATCC4617
[12] = system: Klebsiella pneumoniae ATCC 13883; assay: Broth microdilution MIC/MBC; conditions: ATCC13883
[13] = system: Bacillus subtilis ATCC 6633; assay: Broth microdilution MIC/MBC; conditions: ATCC6633
[14] = system: Staphylococcus epidermidis ATCC 12228; assay: Broth microdilution MIC/MBC; conditions: ATCC12228
[15] = system: Escherichia coli ATCC 25922; assay: Broth microdilution MIC/MBC; conditions: ATCC25922
[16] = system: Staphylococcus aureus ATCC 43300; assay: Broth microdilution MIC/MBC; conditions: ATCC43300 / MRSA
[17] = system: Staphylococcus aureus ATCC 29213; assay: Broth microdilution MIC/MBC; conditions: ATCC29213
[18] = system: Micrococcus luteus ATCC 10240; assay: Broth microdilution MIC/MBC; conditions: Micrococcus luteus, ATCC10240

| SMILES | MBC [1] [µg/mL] | MIC [1] [µg/mL] | MIC [2] [µg/mL] | MIC [3] [µg/mL] | MIC [4] [µg/mL] | MIC [5] [µg/mL] | MIC [6] [µg/mL] | MIC [7] [µg/mL] | MBC [8] [µg/mL] | MIC [8] [µg/mL] | MIC [9] [µg/mL] | melting point [°C] | MIC [10] [µg/mL] | MIC [11] [µg/mL] | MIC [12] [µg/mL] | MBC [13] [µg/mL] | MIC [13] [µg/mL] | MBC [14] [µg/mL] | MIC [14] [µg/mL] | MIC [15] [µg/mL] | further results |
| --- | --- | --- | --- | --- | --- | --- | --- | --- | --- | --- | --- | --- | --- | --- | --- | --- | --- | --- | --- | --- | --- |
| O=C(N/N=C/c1cc(Cl)cc(Cl)c1O)c1cccc(I)c1 [Compound 17, N-[(3,5-dichloro-2-hydroxyphenyl)methylidene]-3-iodobenzohydrazide] | 31.2 (≈ 71.8 µM) | 31.2 (≈ 71.8 µM) | > 1000 | > 1000 | > 1000 | > 1000 | > 1000 | > 1000 | 15.6 (≈ 35.9 µM) | 15.6 (≈ 35.9 µM) | > 1000 | 210 to 212 | > 1000 | > 1000 | > 1000 | 15.6 (≈ 35.9 µM) | 7.81 (≈ 18 µM) | 62.5 (≈ 144 µM) | 15.6 (≈ 35.9 µM) | > 1000 | MIC (Gram-positive bacteria): 7.81 to 31.2 µg/mL (≈ 18 to 71.8 µM); MBC [16]: 15.6 µg/mL (≈ 35.9 µM); MIC [16]: 15.6 µg/mL (≈ 35.9 µM); MBC [17]: 15.6 µg/mL (≈ 35.9 µM); MIC [17]: 15.6 µg/mL (≈ 35.9 µM); MBC [18]: 15.6 µg/mL (≈ 35.9 µM); MIC [18]: 15.6 µg/mL (≈ 35.9 µM) |
| O=C(N/N=C/c1cccc([N+](=O)[O-])c1O)c1cccc(I)c1 [Compound 15, N-[(2-hydroxy-3-nitrophenyl)methylidene]-3-iodobenzohydrazide] | > 1000 | 250 (≈ 608 µM) | > 1000 | > 1000 | > 1000 | > 1000 | > 1000 | > 1000 | 250 (≈ 608 µM) | 125 (≈ 304 µM) | > 1000 | 190 to 199 | > 1000 | > 1000 | > 1000 | 500 (≈ 1220 µM) | 125 (≈ 304 µM) | 125 (≈ 304 µM) | 31.2 (≈ 76 µM) | > 1000 | MIC (Gram-positive bacteria): 31.2 to 500 µg/mL (≈ 76 to 1220 µM); MBC [16]: > 1000 µg/mL; MIC [16]: 1000 µg/mL (≈ 2430 µM); MBC [17]: > 1000 µg/mL; MIC [17]: 250 µg/mL (≈ 608 µM); MBC [18]: 125 µg/mL (≈ 304 µM); MIC [18]: 31.2 µg/mL (≈ 76 µM) |
| O=C(N/N=C/c1ccccc1O)c1ccc(I)cc1 [Compound 23, N-[(2-hydroxyphenyl)methylidene]-4-iodobenzohydrazide] | > 1000 | 1000 (≈ 2730 µM) | > 1000 | 1000 (≈ 2730 µM) | > 1000 | > 1000 | > 1000 | > 1000 | > 1000 | 1000 (≈ 2730 µM) | > 1000 | 195 to 205 | > 1000 | > 1000 | > 1000 | > 1000 | 1000 (≈ 2730 µM) | > 1000 | 1000 (≈ 2730 µM) | > 1000 | MFC ([3]; ATCC22019, read-out: MFC): > 1000 µg/mL; MBC (Gram-positive bacteria; range over the reference Gram-positive bacteria, read-out: MBC): > 1000 µg/mL; MIC (Gram-positive bacteria; range over the reference Gram-positive bacteria, read-out: MIC): 500 to 1000 µg/mL (≈ 1370 to 2730 µM); antibacterial activity in words (Gram-positive bacteria; reference Gram-positive bacteria / studied bacteria): moderate or mild; MBC [16]: > 1000 µg/mL; MIC [16]: 500 µg/mL (≈ 1370 µM); MBC [17]: > 1000 µg/mL; MIC [17]: 500 µg/mL (≈ 1370 µM); MBC [18]: > 1000 µg/mL; MIC [18]: 500 µg/mL (≈ 1370 µM) |
